Results reported in ChEMBL document CHEMBL4020788, “Synthesis, SAR and molecular docking studies of benzo[d]thiazole-hydrazones as potential antibacterial and antifungal agents” (2017).
Active and inactive are the calls of the source. The calls are words filed in the database; no cut-off is given here.

Assays:
Format in all cases: functional
Staphylococcus aureus [1] = experiment: Antibacterial activity against Staphylococcus aureus at 25 ug/ml after 24 hrs by agar well diffusion method; conditions: for zone of inhibition at 25 µg/mL: read-out: DIZ
Staphylococcus aureus [2] = experiment: Antibacterial activity against Staphylococcus aureus at 50 ug/ml after 24 hrs by agar well diffusion method; conditions: for zone of inhibition at 50 µg/mL: read-out: DIZ
Staphylococcus aureus [3] = experiment: Antibacterial activity against Staphylococcus aureus at 75 ug/ml after 24 hrs by agar well diffusion method; conditions: for zone of inhibition at 75 µg/mL: read-out: DIZ
Staphylococcus aureus [4] = experiment: Antibacterial activity against Staphylococcus aureus at 100 ug/ml after 24 hrs by agar well diffusion method; conditions: read-out: DIZ
Bacillus subtilis [5] = experiment: Antibacterial activity against Bacillus subtilis at 25 ug/ml after 24 hrs by agar well diffusion method
Bacillus subtilis [6] = experiment: Antibacterial activity against Bacillus subtilis at 50 ug/ml after 24 hrs by agar well diffusion method
Bacillus subtilis [7] = experiment: Antibacterial activity against Bacillus subtilis at 75 ug/ml after 24 hrs by agar well diffusion method
Bacillus subtilis [8] = experiment: Antibacterial activity against Bacillus subtilis at 100 ug/ml after 24 hrs by agar well diffusion method
Escherichia coli [9] = experiment: Antibacterial activity against Escherichia coli at 25 ug/ml after 24 hrs by agar well diffusion method; conditions: for zone of inhibition at 25 µg/mL: read-out: DIZ
Escherichia coli [10] = experiment: Antibacterial activity against Escherichia coli at 50 ug/ml after 24 hrs by agar well diffusion method; conditions: for zone of inhibition at 50 µg/mL: read-out: DIZ
Escherichia coli [11] = experiment: Antibacterial activity against Escherichia coli at 75 ug/ml after 24 hrs by agar well diffusion method; conditions: for zone of inhibition at 75 µg/mL: read-out: DIZ
Escherichia coli [12] = experiment: Antibacterial activity against Escherichia coli at 100 ug/ml after 24 hrs by agar well diffusion method; conditions: for zone of inhibition at 100 µg/mL: read-out: DIZ
Klebsiella pneumoniae [13] = experiment: Antibacterial activity against Klebsiella pneumoniae at 25 ug/ml after 24 hrs by agar well diffusion method; conditions: for zone of inhibition at 25 µg/mL: read-out: DIZ
Klebsiella pneumoniae [14] = experiment: Antibacterial activity against Klebsiella pneumoniae at 50 ug/ml after 24 hrs by agar well diffusion method; conditions: for zone of inhibition at 50 µg/mL: read-out: DIZ
Klebsiella pneumoniae [15] = experiment: Antibacterial activity against Klebsiella pneumoniae at 75 ug/ml after 24 hrs by agar well diffusion method; conditions: for zone of inhibition at 75 µg/mL: read-out: DIZ
Klebsiella pneumoniae [16] = experiment: Antibacterial activity against Klebsiella pneumoniae at 100 ug/ml after 24 hrs by agar well diffusion method; conditions: for zone of inhibition at 100 µg/mL: read-out: DIZ
Staphylococcus aureus [17] = experiment: Antibacterial activity against methicillin resistant Staphylococcus aureus MRSA090 at 25 ug/ml after 24 hrs by agar well diffusion method; conditions: MRSA090, 24 h, read-out: DIZ
Staphylococcus aureus [18] = experiment: Antibacterial activity against methicillin resistant Staphylococcus aureus MRSA090 at 50 ug/ml after 24 hrs by agar well diffusion method; conditions: MRSA090, 24 h, read-out: DIZ
Staphylococcus aureus [19] = experiment: Antibacterial activity against methicillin resistant Staphylococcus aureus MRSA090 at 75 ug/ml after 24 hrs by agar well diffusion method; conditions: MRSA090, 24 h, read-out: DIZ
Staphylococcus aureus [20] = experiment: Antibacterial activity against methicillin resistant Staphylococcus aureus MRSA090 at 100 ug/ml after 24 hrs by agar well diffusion method; conditions: MRSA090, 24 h, read-out: DIZ
Aspergillus niger [21] = experiment: Antifungal activity against Aspergillus niger at 25 ug/ml after 48 hrs by agar well diffusion method
Aspergillus niger [22] = experiment: Antifungal activity against Aspergillus niger at 50 ug/ml after 48 hrs by agar well diffusion method
Aspergillus niger [23] = experiment: Antifungal activity against Aspergillus niger at 75 ug/ml after 48 hrs by agar well diffusion method
Aspergillus niger [24] = experiment: Antifungal activity against Aspergillus niger at 100 ug/ml after 48 hrs by agar well diffusion method
Fusarium verticillioides [25] = experiment: Antifungal activity against Fusarium moniliforme at 25 ug/ml after 48 hrs by agar well diffusion method; conditions: for zone of inhibition at 25 µg/mL: read-out: DIZ
Fusarium verticillioides [26] = experiment: Antifungal activity against Fusarium moniliforme at 50 ug/ml after 48 hrs by agar well diffusion method; conditions: for zone of inhibition at 50 µg/mL: read-out: DIZ
Fusarium verticillioides [27] = experiment: Antifungal activity against Fusarium moniliforme at 75 ug/ml after 48 hrs by agar well diffusion method; conditions: for zone of inhibition at 75 µg/mL: read-out: DIZ
Fusarium verticillioides [28] = experiment: Antifungal activity against Fusarium moniliforme at 100 ug/ml after 48 hrs by agar well diffusion method; conditions: for zone of inhibition at 100 µg/mL: read-out: DIZ
Fusarium oxysporum [29] = experiment: Antifungal activity against Fusarium oxysporum at 25 ug/ml after 48 hrs by agar well diffusion method; conditions: for zone of inhibition at 25 µg/mL: read-out: DIZ
Fusarium oxysporum [30] = experiment: Antifungal activity against Fusarium oxysporum at 50 ug/ml after 48 hrs by agar well diffusion method; conditions: read-out: DIZ
Fusarium oxysporum [31] = experiment: Antifungal activity against Fusarium oxysporum at 75 ug/ml after 48 hrs by agar well diffusion method; conditions: read-out: DIZ
Fusarium oxysporum [32] = experiment: Antifungal activity against Fusarium oxysporum at 100 ug/ml after 48 hrs by agar well diffusion method; conditions: read-out: DIZ

| SMILES | zone of inhibition at 100 µg/mL (Staphylococcus aureus [4]) [mm] | diameter of the inhibition zone (DIZ) (Bacillus subtilis [5]) | diameter of the inhibition zone (DIZ) (Bacillus subtilis [6]) | diameter of the inhibition zone (DIZ) (Bacillus subtilis [7]) | diameter of the inhibition zone (DIZ) (Bacillus subtilis [8]) | zone of inhibition at 25 µg/mL (Escherichia coli [9]) [mm] | zone of inhibition at 50 µg/mL (Escherichia coli [10]) [mm] | zone of inhibition at 75 µg/mL (Escherichia coli [11]) [mm] | zone of inhibition at 100 µg/mL (Escherichia coli [12]) [mm] | zone of inhibition at 25 µg/mL (Staphylococcus aureus [17]) [mm] | zone of inhibition at 50 µg/mL (Staphylococcus aureus [18]) [mm] | zone of inhibition at 75 µg/mL (Staphylococcus aureus [19]) [mm] | zone of inhibition at 100 µg/mL (Staphylococcus aureus [20]) [mm] | diameter of the inhibition zone (DIZ) (Aspergillus niger [21]) | diameter of the inhibition zone (DIZ) (Aspergillus niger [22]) | diameter of the inhibition zone (DIZ) (Aspergillus niger [23]) | diameter of the inhibition zone (DIZ) (Aspergillus niger [24]) | zone of inhibition at 50 µg/mL (Fusarium oxysporum [30]) [mm] | zone of inhibition at 75 µg/mL (Fusarium oxysporum [31]) [mm] | zone of inhibition at 100 µg/mL (Fusarium oxysporum [32]) [mm] | also measured |
| --- | --- | --- | --- | --- | --- | --- | --- | --- | --- | --- | --- | --- | --- | --- | --- | --- | --- | --- | --- | --- | --- |
| Cc1ccc(/C=N/Nc2nc3cccc(C)c3s2)cc1 | 10 | inactive | inactive | inactive | inactive | 10 | 14 | 17 | 22 | 6 | 10 | 14 | 17 | inactive | inactive | inactive | inactive | 11 | 14 | 17 | diameter of the inhibition zone (DIZ) (Staphylococcus aureus [1]): inactive; diameter of the inhibition zone (DIZ) (Staphylococcus aureus [2]): inactive; diameter of the inhibition zone (DIZ) (Staphylococcus aureus [3]): inactive; diameter of the inhibition zone (DIZ) (Klebsiella pneumoniae [13]): inactive; diameter of the inhibition zone (DIZ) (Klebsiella pneumoniae [14]): inactive; diameter of the inhibition zone (DIZ) (Klebsiella pneumoniae [15]): inactive; diameter of the inhibition zone (DIZ) (Klebsiella pneumoniae [16]): inactive; diameter of the inhibition zone (DIZ) (Fusarium verticillioides [25]): inactive; diameter of the inhibition zone (DIZ) (Fusarium verticillioides [26]): inactive; diameter of the inhibition zone (DIZ) (Fusarium verticillioides [27]): inactive; diameter of the inhibition zone (DIZ) (Fusarium verticillioides [28]): inactive; zone of inhibition at 25 µg/mL (Fusarium oxysporum [29]): 7 mm |
| COc1cc(/C=N/Nc2nc3cccc(C)c3s2)cc(Br)c1O | 16 |  |  |  |  | 11 | 15 | 19 | 21 | 7 | 13 | 19 | 20 |  |  |  |  | 14 | 17 | 20 | zone of inhibition at 25 µg/mL (Staphylococcus aureus [1]): 8 mm; zone of inhibition at 50 µg/mL (Staphylococcus aureus [2]): 10 mm; zone of inhibition at 75 µg/mL (Staphylococcus aureus [3]): 13 mm; zone of inhibition at 25 µg/mL (Bacillus subtilis [5]; read-out: DIZ): 5 mm; zone of inhibition at 50 µg/mL (Bacillus subtilis [6]; read-out: DIZ): 9 mm; zone of inhibition at 75 µg/mL (Bacillus subtilis [7]; read-out: DIZ): 13 mm; zone of inhibition at 100 µg/mL (Bacillus subtilis [8]; read-out: DIZ): 17 mm; zone of inhibition at 25 µg/mL (Klebsiella pneumoniae [13]): 9 mm; zone of inhibition at 50 µg/mL (Klebsiella pneumoniae [14]): 14 mm; zone of inhibition at 75 µg/mL (Klebsiella pneumoniae [15]): 17 mm; zone of inhibition at 100 µg/mL (Klebsiella pneumoniae [16]): 21 mm; zone of inhibition at 25 µg/mL (Aspergillus niger [21]; read-out: DIZ): 7 mm; zone of inhibition at 50 µg/mL (Aspergillus niger [22]; read-out: DIZ): 11 mm; zone of inhibition at 75 µg/mL (Aspergillus niger [23]; read-out: DIZ): 16 mm; zone of inhibition at 100 µg/mL (Aspergillus niger [24]; read-out: DIZ): 18 mm; zone of inhibition at 25 µg/mL (Fusarium verticillioides [25]): 9 mm; zone of inhibition at 50 µg/mL (Fusarium verticillioides [26]): 13 mm; zone of inhibition at 75 µg/mL (Fusarium verticillioides [27]): 17 mm; zone of inhibition at 100 µg/mL (Fusarium verticillioides [28]): 20 mm; zone of inhibition at 25 µg/mL (Fusarium oxysporum [29]): 8 mm |
| COc1cc(/C=N/Nc2nc3cccc(C)c3s2)ccc1OCc1ccccc1 | 18 | inactive | inactive | inactive | inactive |  |  |  |  | 5 | 10 | 12 | 14 | inactive | inactive | inactive | inactive | 5 | 9 | 14 | zone of inhibition at 25 µg/mL (Staphylococcus aureus [1]): 7 mm; zone of inhibition at 50 µg/mL (Staphylococcus aureus [2]): 11 mm; zone of inhibition at 75 µg/mL (Staphylococcus aureus [3]): 14 mm; diameter of the inhibition zone (DIZ) (Escherichia coli [9]): inactive; diameter of the inhibition zone (DIZ) (Escherichia coli [10]): inactive; diameter of the inhibition zone (DIZ) (Escherichia coli [11]): inactive; diameter of the inhibition zone (DIZ) (Escherichia coli [12]): inactive; zone of inhibition at 25 µg/mL (Klebsiella pneumoniae [13]): 7 mm; zone of inhibition at 50 µg/mL (Klebsiella pneumoniae [14]): 12 mm; zone of inhibition at 75 µg/mL (Klebsiella pneumoniae [15]): 14 mm; zone of inhibition at 100 µg/mL (Klebsiella pneumoniae [16]): 17 mm; zone of inhibition at 25 µg/mL (Fusarium verticillioides [25]): 4 mm; zone of inhibition at 50 µg/mL (Fusarium verticillioides [26]): 9 mm; zone of inhibition at 75 µg/mL (Fusarium verticillioides [27]): 15 mm; zone of inhibition at 100 µg/mL (Fusarium verticillioides [28]): 20 mm; diameter of the inhibition zone (DIZ) (Fusarium oxysporum [29]): inactive |
